Where two headings read alike, the source gives them in different places.
Test system: CFTR-Y122X
Test: CFTR-Y122X assay (dual reporter isogenic Hek293 cell lines, Renilla luminescence readthrough)
Format: cell-based
Settings: Homo sapiens, HEK293; for Emax at 100 µM: measured at 100 μM compound concentration (footnote d), read-out: Amax [%]: % nonsense mutation suppression relative to paromomycin reference activity
Source text: Activity of compounds of the present invention was examined in recombinant, dual reporter isogenic Hek293 cell lines (“CFTR-Y122X assay”). The engineered reporter constructs contained the 18 bp sequence stretch corresponding to a common Y122X PTC mutation in CFTR class I mutant patients (see Sermet-Gaudelus, BMC Medicine, 2007, 5(5)). Instead of a tyrosine (Y) in position 122 of the CFTR protein a TGA stop codon interrupts the open reading frame (Y122X) of the corresponding mRNA. This TGA stop codon triplet (followed by the pyrimidine base cytosine) is permissive to aminoglycoside mediated translational readthrough which served as positive control for high throughput screening. A corresponding TAA stop codon variant and a wildtype non mutated construct was used for confirmation and counter screening. The CFTR sequence was sandwiched between an eGFP reporter, and a triple myc tag sequence fused to a full length Renilla reporter. All sequences, including an intron containing one positioned pre-eGFP (b-globin intron) were cloned in frame. The corresponding expression constructs were stably expressed in the isogenic HEK-R4 cell host (Invitrogen Incorp.) and selected by blasticidin resistance. The isogenic integration of the construct minimizes gene dose effects and improves assay reproducibility. Stably integrated single cell derived clones were selected and characterized for aminoglycoside mediated readthrough. […] Readthrough of Y122X accumulates an intracellular localized fusion protein approximately 65.5 kDa in size as controlled by western blot analysis and immunofluorescence using an anti-renilla antibody. The eGFP reporter pre-PTC mutation serves as visual control for genetic stability of the screening clones and minimizes protein degradation of small fusion protein amounts. In the assay, compound concentration was 10 μM. In miniaturized 1536 well format 2000 cells were dispensed in 4 μl/well and incubated for 24 h at 37° C., 5% CO2. 40 nl compounds were placed on the cells with control wells containing 1 ul Paramomycin and 14.4 mM final concentration. Compounds were incubated for 24 h. Renilla Glo substrate (2.5 ul) was added and plates were centrifuged and processed for luminescence measurement using various readers. Activity calculation was done using the equation: A1 (%)=100*(S−NC)/(AC−NC) where AC, NC and S correspond to active controls (injection of Stimulation buffer=100% stimulation), neutral controls (buffer injection which Iloprost EC10) and screening samples (S). NC corresponds to 0% activity whereas AC is 100% activity (14 mM paromomycin). False positive artefacts were removed in confirmation and validation screening using the same assay format followed by counterscreening using the respective wildtype construct (w/o PTC mutation) cell model. Compounds were tested up to 100 μM compound concentration.

[1] = at the above dose ranges (up to 100 μM), read-out: suppression, % of paromomycin reference activity
[2] = nonsense mutation suppression, 100% = 14 mM paromomycin, 24 h incubation, tested up to 100 μM, read-out: Amax [%]
[3] = nonsense mutation suppression, 24 h incubation

Compound `Cn1c2ccccc2c(=O)c2c(=O)n(C3CCCCCC3)c(C3CCCCC3)nc21` [3-cycloheptyl-2-cyclohexyl-10-methylpyrimido[4,5-b]quinoline-4,5(3H,10H)-dione] has an Emax [1] of less than 5%.

In the case of `Cn1c2ccccc2c(=O)c2c(=O)n(C3CCCCCC3)c(-c3cccs3)nc21` [Example 2.22, 3-cycloheptyl-10-methyl-2-(thiophen-2-yl)pyrimido[4,5-b]quinoline-4,5(3H,10H)-dione], the Emax [2] is reported as 197% and the AC50 [3] is reported as 11 µM.

Work on `Cn1c2ccccc2c(=O)c2c(=O)n(C3CCCC3)c(-c3ccco3)nc21` [Example 2.49, 3-cyclopentyl-2-(furan-2-yl)-10-methylpyrimido[4,5-b]quinoline-4,5(3H,10H)-dione] yielded an Emax [2] of 7% and an AC50 [3] of 1.8 µM.

`CCCCCCc1nc2c(c(=O)c3ccccc3n2C)c(=O)n1-c1ccccc1` [Example 1.47, 2-hexyl-10-methyl-3-phenylpyrimido[4,5-b]quinoline-4,5(3H,10H)-dione] gave an Emax [2] of 210% and an AC50 [3] of 11.3 µM.

In the case of `Cc1ccccc1-c1nc2c(c(=O)c3ccccc3n2C)c(=O)n1C1CCCCCC1` [Example 2.48, 3-cycloheptyl-10-methyl-2-(o-tolyl)pyrimido[4,5-b]quinoline-4,5(3H,10H)-dione], the Emax at 100 µM is reported as 7%.

For `CCCCc1nc2c(c(=O)c3ccccc3n2C)c(=O)n1-c1ccccc1` [Example 1.12, 2-butyl-10-methyl-3-phenylpyrimido[4,5-b]quinoline-4,5(3H,10H)-dione], the Emax [2] was 391% and the AC50 [3] was 4.8 µM.

For `NCCn1c2ccccc2c(=O)c2c(=O)n(-c3ccccc3)c(C3CCC3)nc21` [Example 1.37, 10-(2-aminoethyl)-2-cyclobutyl-3-phenylpyrimido[4,5-b]quinoline-4,5(3H,10H)-dione], the Emax [2] was 348% and the AC50 [3] was 0.9 µM.

In the case of `CCCCCc1nc2c(c(=O)c3ccccc3n2C)c(=O)n1-c1ccccc1` [Example 1.29, 10-methyl-2-pentyl-3-phenylpyrimido[4,5-b]quinoline-4,5(3H,10H)-dione], the Emax [2] is reported as 336% and the AC50 [3] is reported as 7.1 µM.

In the case of `COc1ccc(-c2nc3c(c(=O)c4ccccc4n3C)c(=O)n2C2CCCCCC2)cc1` [Example 2.47, 3-cycloheptyl-2-(4-methoxyphenyl)-10-methylpyrimido[4,5-b]quinoline-4,5(3H,10H)-dione], the Emax [2] is reported as 10% and the AC50 [3] is reported as 3.1 µM.

Work on `COc1cccc2c(=O)c3c(=O)n(C4CCCC4)c(C(C)C)nc3n(C)c12` [Example 2.9, 3-cyclopentyl-2-isopropyl-9-methoxy-10-methylpyrimido[4,5-b]quinoline-4,5(3H,10H)-dione] yielded an Emax [2] of 73% and an AC50 [3] of 18.4 µM.

In the case of `Cn1c2ccccc2c(=O)c2c(=O)n(-c3ccccc3)c(C3CCCCC3)nc21` [Example 1.32, 2-cyclohexyl-10-methyl-3-phenylpyrimido[4,5-b]quinoline-4,5(3H,10H)-dione], the Emax [2] is reported as 38%.

Compound `CCSc1nc2[nH]c3ccccc3c(=O)c2c(=O)n1-c1ccccc1` [Example 3.1, 2-(ethylthio)-3-phenylpyrimido[4,5-b]quinoline-4,5(3H,10H)-dione] has an Emax [2] of 65% and an AC50 [3] of 5.8 µM.

Compound `CC(C)c1nc2c(c(=O)c3cc(C#N)ccc3n2C)c(=O)n1C1CCCC1` [Example 2.14, 3-cyclopentyl-2-isopropyl-10-methyl-4,5-dioxo-3,4,5,10-tetrahydropyrimido[4,5-b]quinoline-7-carbonitrile] has an Emax [2] of 9% and an AC50 [3] of 6.6 µM.

`CCC(C)c1nc2c(c(=O)c3ccccc3n2C)c(=O)n1C1CCCC1` (stereo not shown) [Example 2.4, 2-(sec-butyl)-3-cyclopentyl-10-methylpyrimido[4,5-b]quinoline-4,5(3H,10H)-dione] showed an Emax [2] of 258% and an AC50 [3] of 6.1 µM.

`Cn1c2ccccc2c(=O)c2c(=O)n(C3CCCCC3)c(-c3ccc(C(C)(C)C)cc3)nc21` [2-(4-(tert-butyl)phenyl)-3-cyclohexyl-10-methylpyrimido[4,5-b]quinoline-4,5(3H,10H)-dione] gave an Emax [1] of less than 5%.

With `Cc1ccccc1-c1nc2c(c(=O)c3ccccc3n2C)c(=O)n1C1CCCC1` [Example 2.34, 3-cyclopentyl-10-methyl-2-(o-tolyl)pyrimido[4,5-b]quinoline-4,5(3H,10H)-dione] the Emax [2] was 33% and the AC50 [3] was 8.4 µM.

With `C=CCn1c2ccccc2c(=O)c2c(=O)n(-c3ccccc3)c(C(C)C)nc21` [Example 1.2, 10-allyl-2-isopropyl-3-phenylpyrimido[4,5-b]quinoline-4,5(3H,10H)-dione] the Emax [2] was 63%.

With `Cn1c2ccccc2c(=O)c2c(=O)n(-c3ccccc3)c(C3CC3)nc21` [Example 1.11, 2-cyclopropyl-10-methyl-3-phenylpyrimido[4,5-b]quinoline-4,5(3H,10H)-dione] the Emax [2] was 188% and the AC50 [3] was 9.1 µM.

For `CCCc1nc2c(c(=O)c3ccccc3n2C)c(=O)n1C1CCCC1` [Example 2.21, 3-cyclopentyl-10-methyl-2-propylpyrimido[4,5-b]quinoline-4,5(3H,10H)-dione], the Emax [2] was 214% and the AC50 [3] was 7.6 µM.

With `Cn1c2ccccc2c(=O)c2c(=O)n(C3CCCCC3)c(-c3cccc(Br)c3)nc21` [Example 2.30, 2-(3-bromophenyl)-3-cyclohexyl-10-methylpyrimido[4,5-b]quinoline-4,5(3H,10H)-dione] the Emax [2] was 71% and the AC50 [3] was 22.2 µM.

`COCCCc1nc2c(c(=O)c3ccccc3n2C)c(=O)n1-c1ccccc1` [Example 1.13, 2-(3-methoxypropyl)-10-methyl-3-phenylpyrimido[4,5-b]quinoline-4,5(3H,10H)-dione] showed an Emax [2] of 13%.

Compound `CC(C)c1nc2c(c(=O)c3ccccc3n2C)c(=O)n1C1CCCC1` [Example 2.15, 3-cyclopentyl-2-isopropyl-10-methylpyrimido[4,5-b]quinoline-4,5(3H,10H)-dione] has an Emax [2] of 275% and an AC50 [3] of 3.8 µM.

Compound `COC1CC(c2nc3c(c(=O)c4ccccc4n3C)c(=O)n2-c2ccccc2)C1` (stereo not shown) [Example 1.8, 2-(3-methoxycyclobutyl)-10-methyl-3-phenylpyrimido[4,5-b]quinoline-4,5(3H,10H)-dione] has an Emax [2] of 18% and an AC50 [3] of 11.8 µM.

In the case of `Cn1c2ccccc2c(=O)c2c(=O)n(C3CCCC3)c(-c3ccc(C(C)(C)C)cc3)nc21` [2-(4-(tert-butyl)phenyl)-3-cyclopentyl-10-methylpyrimido[4,5-b]quinoline-4,5(3H,10H)-dione], the Emax [1] is reported as less than 5%.

`Cn1c2ccccc2c(=O)c2c(=O)n(C3CCCC3)c(-c3ccccc3F)nc21` [Example 2.32, 3-cyclopentyl-2-(2-fluorophenyl)-10-methylpyrimido[4,5-b]quinoline-4,5(3H,10H)-dione] was tested, and the Emax at 100 µM was 43%.

With `Cn1c2ccccc2c(=O)c2c(=O)n(C3CCCCC3)c(-c3cccc([N+](=O)[O-])c3)nc21` [Example 2.19, 3-cyclohexyl-10-methyl-2-(3-nitrophenyl)pyrimido[4,5-b]quinoline-4,5(3H,10H)-dione] the Emax [2] was 248% and the AC50 [3] was 11.6 µM.

`CCCn1c2ccccc2c(=O)c2c(=O)n(-c3ccccc3)c(C(C)C)nc21` [Example 1.44, 2-isopropyl-3-phenyl-10-propylpyrimido[4,5-b]quinoline-4,5(3H,10H)-dione] was tested, and the Emax [2] was 118% and the AC50 [3] was 15.2 µM.

For `CC(C)c1nc2c(c(=O)c3ccccc3n2C)c(=O)n1-c1ccccc1Br` [Example 1.40, 3-(2-bromophenyl)-2-isopropyl-10-methylpyrimido[4,5-b]quinoline-4,5(3H,10H)-dione], the Emax [2] was 112% and the AC50 [3] was 12.1 µM.

For `CN(C)c1nc2c(c(=O)c3ccccc3n2C)c(=O)n1-c1ccccc1` [Example 3.3, 2-(dimethylamino)-10-methyl-3-phenylpyrimido[4,5-b]quinoline-4,5(3H,10H)-dione], the Emax [2] was 18% and the AC50 [3] was 3.5 µM.

With `Cc1ccccc1-n1c(C(C)C)nc2c(c(=O)c3ccccc3n2C)c1=O` [Example 1.18, 2-isopropyl-10-methyl-3-(o-tolyl)pyrimido[4,5-b]quinoline-4,5(3H,10H)-dione] the Emax [2] was 248% and the AC50 [3] was 6.9 µM.

`CC(C)c1nc2c(c(=O)c3cc(Cl)ccc3n2C)c(=O)n1-c1ccccc1` [Example 1.24, 7-chloro-2-isopropyl-10-methyl-3-phenylpyrimido[4,5-b]quinoline-4,5(3H,10H)-dione] was tested, and the Emax [2] was 140% and the AC50 [3] was 11.5 µM.

`CC(C)c1nc2c(c(=O)c3ccccc3n2C)c(=O)n1C1CCOC1` (stereo not shown) [2-isopropyl-10-methyl-3-(tetrahydrofuran-3-yl)pyrimido[4,5-b]quinoline-4,5(3H,10H)-dione] was tested, and the Emax [1] was less than 5%.
